Source: patent US9688691B2, “Macrocyclic quinazole derivatives and their use as MTKI” (Janssen Pharmaceutica NV, priority 2004, dated 2017)

Key:
Format in all cases: biochemical
[1] = target: Flt1 human (Homo sapiens, UniProt P17948); test: Kinase profiling, glass-fiber filter technology: Flt1; details: test concentration of 10^−6 M; read-out: Flt1 inhibition score
Description: (§1) The in vitro inhibition of a panel of kinases was assessed using the glass-fiber filter technology as described by Davies, S. P. et al., Biochem J. (2000), 351; p. 95-105.
(§2) In the glass-fiber filter technology the activity of the kinase of interest is measured using an appropriate substrate that is incubated with the aforementioned kinase protein in the presence of (^33P) radiolabeled ATP. (^33P) Phosporylation of the substrate is subsequently measured as radioactivity bound on a glassfiber-filter.
(§3) All kinases are pre-diluted to a 10× working concentration prior to addition into the assay. The composition of the dilution buffer for each kinase is detailed below.
(§4) All substrates are dissolved and diluted to working stocks in de-ionised water.
(§5) In a final reaction volume of 25 μl, Flt1 human (5-10 mU) is incubated with 8 mM MOPS pH 7.0, 0.2 mM EDTA, 250 μM KKKSPGEYVNIEFG, 10 mM MgAcetate and [γ-^33P-ATP] (specific activity approx. 500 cpm/pmol, concentration as required). The reaction is initiated by the addition of the MgATP mix. After incubation for 40 minutes at room temperature, the reaction is stopped by the addition of 5 μl of a 3% phosphoric acid solution. 10 μl of the reaction is then spotted onto a P30 filtermat and washed three times for 5 minutes in 75 mM phosphoric acid and once in methanol prior to drying and scintillation counting.

[2] = target: Lck (h) (Homo sapiens, UniProt P06239); test: Kinase profiling, glass-fiber filter technology: Lck; details: test concentration of 10^−6 M; read-out: Lck inhibition score
Description: as §1, §2, §3, §4
In a final reaction volume of 25 μl, Lck (h) (5-10 mU) is incubated with 50 mM Tris pH 7.5, 0.1 mM EGTA, 0.1 mM Na3VO4, 250 μM KVEKIGEGTYGVVYK (Cdc2 peptide), 10 mM MgAcetate and [γ-^33P-ATP] (specific activity approx. 500 cpm/pmol, concentration as required). The reaction is initiated by the addition of the MgATP mix. After incubation for 40 minutes at room temperature, the reaction is stopped by the addition of 5 μl of a 3% phosphoric acid solution.
10 μl of the reaction is then spotted onto a P30 filtermat and washed three times for 5 minutes in 75 mM phosphoric acid and once in methanol prior to drying and scintillation counting.

[3] = target: Yes (h) (Homo sapiens, UniProt P07947); test: Kinase profiling, glass-fiber filter technology: Yes; details: test concentration of 10^−6 M; read-out: Yes inhibition score
Description: as §1, §2, §3, §4
as §5, with “Yes (h)” for “Flt1 human”, “0.1 mg/ml poly(Glu, Tyr) 4:1,” for “250 μM KKKSPGEYVNIEFG,”, “Filtermat A” for “P30 filtermat”

[4] = target: EGFR (h) (Homo sapiens, UniProt P00533); test: Kinase profiling, glass-fiber filter technology: EGFR; details: test concentration of 10^−6 M; read-out: EGFR inhibition score
Description: as §1, §2, §3, §4
as §5, with “EGFR (h)” for “Flt1 human”, “10 mM MnCl2, 0.1 mg/ml poly(Glu, Tyr) 4:1,” for “250 μM KKKSPGEYVNIEFG,”, “Filtermat A” for “P30 filtermat”

[5] = target: Blk (m) (Mus musculus, UniProt P16277); test: Kinase profiling, glass-fiber filter technology: Blk; details: test concentration of 10^−6 M; read-out: Blkl inhibition score
Description: as §1, §2, §3, §4
(§6) In a final reaction volume of 25 μl, Blk (m) (5-10 mU) is incubated with 50 mM Tris pH 7.5, 0.1 mM EGTA, 0.1 mM Na3VO4, 0.1% β-mercaptoethanol, 0.1 mg/ml poly(Glu, Tyr) 4:1, 10 mM MgAcetate and [γ-33P-ATP] (specific activity approx. 500 cpm/pmol, concentration as required). The reaction is initiated by the addition of the MgATP mix. After incubation for 40 minutes at room temperature, the reaction is stopped by the addition of 5 μl of a 3% phosphoric acid solution. 10 μl of the reaction is then spotted onto a Filtermat A and washed three times for 5 minutes in 75 mM phosphoric acid and once in methanol prior to drying and scintillation counting.

[6] = target: Fyn human (Homo sapiens, UniProt P06241); test: Kinase profiling, glass-fiber filter technology: Fyn; details: test concentration of 10^−6 M; read-out: Fyn inhibition score
Description: as §1, §2, §3, §4
as §5, with “Fyn” for “Flt1”, “50” for “8”, “Tris” for “MOPS”, “7.5, 0.1” for “7.0, 0.2”, “EGTA, 0.1 mM Na3VO4,” for “EDTA,”, “KVEKIGEGTYGVVYK (Cdc2 peptide),” for “KKKSPGEYVNIEFG,”

[7] = target: Lyn (h) (Homo sapiens, UniProt P07948); test: Kinase profiling, glass-fiber filter technology: Lyn; details: test concentration of 10^−6 M; read-out: Lyn inhibition score
Description: as §1, §2, §3, §4
as §6, with “Lyn (h)” for “Blk (m)”, “[γ-^33P-ATP]” for “[γ-33P-ATP]”

Chain of Blk (m) (P16277 whole entry): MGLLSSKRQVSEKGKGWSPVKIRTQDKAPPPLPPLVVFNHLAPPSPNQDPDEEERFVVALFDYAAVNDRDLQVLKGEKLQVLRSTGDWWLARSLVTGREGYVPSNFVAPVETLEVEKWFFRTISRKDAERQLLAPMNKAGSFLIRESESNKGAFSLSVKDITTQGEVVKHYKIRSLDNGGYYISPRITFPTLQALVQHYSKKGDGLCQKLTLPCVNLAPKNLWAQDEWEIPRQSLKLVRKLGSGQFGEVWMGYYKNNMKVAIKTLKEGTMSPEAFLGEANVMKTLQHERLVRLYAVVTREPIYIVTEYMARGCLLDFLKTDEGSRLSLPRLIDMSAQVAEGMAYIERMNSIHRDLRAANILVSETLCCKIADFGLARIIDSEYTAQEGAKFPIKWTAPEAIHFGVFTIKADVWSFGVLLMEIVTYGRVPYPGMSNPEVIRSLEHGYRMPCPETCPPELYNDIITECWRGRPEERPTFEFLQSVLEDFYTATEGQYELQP
Chain of EGFR (h) (P00533 25-1210): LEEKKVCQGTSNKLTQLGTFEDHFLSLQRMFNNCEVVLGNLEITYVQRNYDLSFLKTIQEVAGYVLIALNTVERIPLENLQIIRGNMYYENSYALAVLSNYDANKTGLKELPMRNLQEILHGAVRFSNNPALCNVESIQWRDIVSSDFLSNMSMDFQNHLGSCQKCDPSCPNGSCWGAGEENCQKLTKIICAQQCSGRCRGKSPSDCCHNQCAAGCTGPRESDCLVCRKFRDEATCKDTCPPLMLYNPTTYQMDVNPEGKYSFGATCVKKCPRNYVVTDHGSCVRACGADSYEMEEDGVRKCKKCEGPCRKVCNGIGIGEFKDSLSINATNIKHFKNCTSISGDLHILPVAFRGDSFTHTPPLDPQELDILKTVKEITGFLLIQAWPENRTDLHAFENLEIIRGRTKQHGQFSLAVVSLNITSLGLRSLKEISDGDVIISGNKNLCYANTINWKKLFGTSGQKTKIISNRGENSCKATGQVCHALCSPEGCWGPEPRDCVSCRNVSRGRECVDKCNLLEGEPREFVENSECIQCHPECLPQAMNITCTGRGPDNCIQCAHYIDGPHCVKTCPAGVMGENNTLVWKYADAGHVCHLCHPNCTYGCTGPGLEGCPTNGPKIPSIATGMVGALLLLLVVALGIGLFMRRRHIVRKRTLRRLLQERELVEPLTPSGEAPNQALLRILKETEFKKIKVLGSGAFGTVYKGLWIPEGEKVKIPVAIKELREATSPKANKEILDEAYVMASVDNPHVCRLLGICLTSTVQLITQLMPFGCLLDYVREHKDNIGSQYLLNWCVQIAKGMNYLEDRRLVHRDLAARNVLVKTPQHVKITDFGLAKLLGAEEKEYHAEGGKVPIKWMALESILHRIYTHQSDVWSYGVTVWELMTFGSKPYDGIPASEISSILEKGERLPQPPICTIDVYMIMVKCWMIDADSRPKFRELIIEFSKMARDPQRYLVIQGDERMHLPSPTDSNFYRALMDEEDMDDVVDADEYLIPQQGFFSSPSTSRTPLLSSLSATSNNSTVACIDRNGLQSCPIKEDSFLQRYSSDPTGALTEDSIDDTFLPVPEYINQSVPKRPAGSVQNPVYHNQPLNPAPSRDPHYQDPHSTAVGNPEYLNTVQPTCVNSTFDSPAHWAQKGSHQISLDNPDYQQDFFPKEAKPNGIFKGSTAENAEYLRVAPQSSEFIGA
Chain of Yes (h) (P07947 whole entry): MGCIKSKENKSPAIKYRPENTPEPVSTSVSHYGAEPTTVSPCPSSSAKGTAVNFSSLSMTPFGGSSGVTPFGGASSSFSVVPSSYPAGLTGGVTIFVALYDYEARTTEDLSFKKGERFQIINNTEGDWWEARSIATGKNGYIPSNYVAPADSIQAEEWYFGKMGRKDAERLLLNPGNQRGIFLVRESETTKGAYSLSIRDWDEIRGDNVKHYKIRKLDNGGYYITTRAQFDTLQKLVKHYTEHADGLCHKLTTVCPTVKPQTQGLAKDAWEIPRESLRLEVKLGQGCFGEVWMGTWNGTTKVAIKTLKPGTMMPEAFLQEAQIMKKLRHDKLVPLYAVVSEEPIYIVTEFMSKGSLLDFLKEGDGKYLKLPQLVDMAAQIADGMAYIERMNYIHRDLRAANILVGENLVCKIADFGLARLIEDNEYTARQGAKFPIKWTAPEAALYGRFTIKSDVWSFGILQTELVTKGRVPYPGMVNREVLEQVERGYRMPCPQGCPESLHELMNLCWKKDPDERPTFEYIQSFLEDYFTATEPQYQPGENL
Chain of Fyn human (P06241 whole entry): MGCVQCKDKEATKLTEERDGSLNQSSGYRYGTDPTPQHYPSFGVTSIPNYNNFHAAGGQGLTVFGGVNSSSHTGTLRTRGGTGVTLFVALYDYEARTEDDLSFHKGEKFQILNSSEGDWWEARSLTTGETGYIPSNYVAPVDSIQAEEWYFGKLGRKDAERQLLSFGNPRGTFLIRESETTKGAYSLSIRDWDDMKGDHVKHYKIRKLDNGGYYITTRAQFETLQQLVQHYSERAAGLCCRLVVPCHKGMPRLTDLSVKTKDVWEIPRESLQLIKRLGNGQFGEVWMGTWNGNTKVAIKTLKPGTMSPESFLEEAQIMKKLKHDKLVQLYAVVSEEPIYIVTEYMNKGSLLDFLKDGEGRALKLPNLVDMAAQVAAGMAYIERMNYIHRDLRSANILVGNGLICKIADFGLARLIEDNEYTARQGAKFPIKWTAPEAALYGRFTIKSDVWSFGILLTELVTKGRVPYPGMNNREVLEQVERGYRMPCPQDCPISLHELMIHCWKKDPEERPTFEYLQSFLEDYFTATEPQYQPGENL
Chain of Lck (h) (P06239 whole entry): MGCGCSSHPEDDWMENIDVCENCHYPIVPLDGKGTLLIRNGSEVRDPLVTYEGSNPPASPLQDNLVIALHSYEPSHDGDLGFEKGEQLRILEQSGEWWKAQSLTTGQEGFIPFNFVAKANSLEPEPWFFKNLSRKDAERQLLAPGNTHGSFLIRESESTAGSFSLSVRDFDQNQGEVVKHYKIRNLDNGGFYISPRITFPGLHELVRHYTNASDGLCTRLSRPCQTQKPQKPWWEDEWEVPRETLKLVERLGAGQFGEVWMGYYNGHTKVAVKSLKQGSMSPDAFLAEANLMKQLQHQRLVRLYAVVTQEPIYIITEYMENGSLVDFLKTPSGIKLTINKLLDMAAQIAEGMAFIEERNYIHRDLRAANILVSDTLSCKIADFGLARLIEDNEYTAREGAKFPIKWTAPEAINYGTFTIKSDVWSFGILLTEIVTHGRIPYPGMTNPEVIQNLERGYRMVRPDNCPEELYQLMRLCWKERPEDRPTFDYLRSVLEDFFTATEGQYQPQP
Chain of Lyn (h) (P07948 whole entry): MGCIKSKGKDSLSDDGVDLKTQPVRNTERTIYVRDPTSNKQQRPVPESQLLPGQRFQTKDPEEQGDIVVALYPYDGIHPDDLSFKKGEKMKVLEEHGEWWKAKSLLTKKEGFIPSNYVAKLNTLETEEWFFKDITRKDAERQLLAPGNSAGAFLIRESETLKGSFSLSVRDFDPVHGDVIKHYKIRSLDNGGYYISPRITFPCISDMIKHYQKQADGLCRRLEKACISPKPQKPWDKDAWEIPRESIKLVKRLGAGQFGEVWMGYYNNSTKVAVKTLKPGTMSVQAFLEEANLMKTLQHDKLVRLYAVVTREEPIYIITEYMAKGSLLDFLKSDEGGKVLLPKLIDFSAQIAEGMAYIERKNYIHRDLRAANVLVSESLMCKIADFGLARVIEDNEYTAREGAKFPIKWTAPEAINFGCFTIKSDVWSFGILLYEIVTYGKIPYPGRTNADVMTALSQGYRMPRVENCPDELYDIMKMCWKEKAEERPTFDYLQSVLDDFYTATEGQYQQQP

CN1CCCCCOc2cc3c(ncnc3cc2OCCCN2CCS(=O)(=O)CC2)Nc2cc(Cl)c(F)cc2C1 [Compound 19]
inhibition at 1 µM [1]: > 80%
inhibition at 1 µM [2]: > 80%
inhibition at 1 µM [3]: > 80%
inhibition at 1 µM [4]: > 80%
inhibition at 1 µM [5]: > 80%
inhibition at 1 µM [6]: > 80%

CC(=O)NCCNCCCOc1cc2ncnc3c2cc1OCCCNC(=O)[C@H](C)N(C)Cc1cc(F)c(Cl)cc1N3 [Compound 4]
inhibition at 1 µM [1]: 30 to 60%
inhibition at 1 µM [2]: > 80%
inhibition at 1 µM [3]: > 80%
inhibition at 1 µM [4]: > 80%
inhibition at 1 µM [5]: > 80%
inhibition at 1 µM [6]: 60 to 80%

COc1cc2ncnc3c2cc1OCCCN(CCN1CCOCC1)C(=O)CNC(=O)Cc1ccc(Cl)cc1N3 [Compound 15]
inhibition at 1 µM [1]: 10 to 30%
inhibition at 1 µM [2]: 30 to 60%
inhibition at 1 µM [3]: 60 to 80%
inhibition at 1 µM [4]: > 80%
inhibition at 1 µM [5]: 30 to 60%
inhibition at 1 µM [6]: 30 to 60%
inhibition at 1 µM [7]: 60 to 80%

C#Cc1ccc2c(c1)Nc1ncnc3cc(OCCCNCCS(C)(=O)=O)c(cc13)OCCCCCN(C)C2 [Compound 20]
inhibition at 1 µM [1]: > 80%
inhibition at 1 µM [2]: > 80%
inhibition at 1 µM [3]: > 80%
inhibition at 1 µM [5]: > 80%
inhibition at 1 µM [7]: > 80%

CC(=O)NCCNCCCOc1cc2ncnc3c2cc1OCCCCCN(C)Cc1ccc(Br)cc1N3 [Compound 13]
inhibition at 1 µM [1]: > 80%
inhibition at 1 µM [2]: > 80%
inhibition at 1 µM [3]: > 80%
inhibition at 1 µM [4]: > 80%
inhibition at 1 µM [5]: > 80%
inhibition at 1 µM [7]: > 80%

CN1CCCCCOc2cc3c(ncnc3cc2OCCCNCCS(C)(=O)=O)Nc2cc(Cl)c(F)cc2C1 [Compound 18]
inhibition at 1 µM [2]: > 80%
inhibition at 1 µM [3]: > 80%
inhibition at 1 µM [4]: > 80%
inhibition at 1 µM [6]: > 80%
inhibition at 1 µM [7]: > 80%

CC(=O)N(CCO)CCCOc1cc2ncnc3c2cc1OCCCNC(=O)[C@H](C)N(C)Cc1cc(F)c(Cl)cc1N3 [Compound 5]
inhibition at 1 µM [1]: 30 to 60%
inhibition at 1 µM [2]: 60 to 80%
inhibition at 1 µM [3]: > 80%
inhibition at 1 µM [4]: > 80%
inhibition at 1 µM [5]: > 80%
inhibition at 1 µM [6]: 60 to 80%
inhibition at 1 µM [7]: > 80%

CN1CCCCCOc2cc3c(ncnc3cc2OCCCNC(=O)OC(C)(C)C)Nc2cc(Br)ccc2C1 [Compound 11]
inhibition at 1 µM [1]: 30 to 60%
inhibition at 1 µM [3]: > 80%
inhibition at 1 µM [4]: > 80%
inhibition at 1 µM [5]: 30 to 60%
inhibition at 1 µM [6]: 60 to 80%
inhibition at 1 µM [7]: 30 to 60%

CN1CCCCCOc2cc3c(ncnc3cc2OCCCNCCS(C)(=O)=O)Nc2cc(Br)ccc2C1 [Compound 14]
inhibition at 1 µM [1]: > 80%
inhibition at 1 µM [2]: > 80%
inhibition at 1 µM [3]: > 80%
inhibition at 1 µM [4]: > 80%
inhibition at 1 µM [5]: > 80%
inhibition at 1 µM [7]: > 80%

C[C@H]1C(=O)NCCCOc2cc3c(ncnc3cc2OCCCN2CCN(C(=O)OC(C)(C)C)CC2)Nc2cc(Cl)c(F)cc2CN1C [Int. 16]
inhibition at 1 µM [1]: 60 to 80%
inhibition at 1 µM [2]: > 80%
inhibition at 1 µM [4]: > 80%
inhibition at 1 µM [5]: > 80%
inhibition at 1 µM [6]: > 80%
inhibition at 1 µM [7]: > 80%

COCCOCCOc1cc2ncnc3c2cc1OCCCCCN(C)Cc1ccc(Br)cc1N3 [Int. 43]
inhibition at 1 µM [1]: 60 to 80%
inhibition at 1 µM [2]: > 80%
inhibition at 1 µM [3]: > 80%
inhibition at 1 µM [4]: > 80%
inhibition at 1 µM [5]: 60 to 80%
inhibition at 1 µM [6]: > 80%
inhibition at 1 µM [7]: > 80%

CC(=O)OCCN(C)CCCOc1cc2ncnc3c2cc1OCCCNC(=O)[C@H](C)N(C)Cc1cc(F)c(Cl)cc1N3 [Compound 2]
inhibition at 1 µM [1]: 30 to 60%
inhibition at 1 µM [2]: > 80%
inhibition at 1 µM [3]: > 80%
inhibition at 1 µM [4]: > 80%
inhibition at 1 µM [5]: > 80%
inhibition at 1 µM [6]: > 80%

COc1cc2ncnc3c2cc1OCCCN(CCCN1CCOCC1)C(=O)[C@H](CC(C)C)NC(=O)Cc1ccc(Br)cc1N3 [Int. 25]
inhibition at 1 µM [1]: 10 to 30%
inhibition at 1 µM [2]: 60 to 80%
inhibition at 1 µM [3]: > 80%
inhibition at 1 µM [4]: > 80%
inhibition at 1 µM [5]: 30 to 60%
inhibition at 1 µM [6]: 30 to 60%
inhibition at 1 µM [7]: 60 to 80%

CC(=O)NCCN1CCN(CCCOc2cc3ncnc4c3cc2OCCCNC(=O)[C@H](C)N(C)Cc2cc(F)c(Cl)cc2N4)CC1 [Compound 6]
inhibition at 1 µM [2]: > 80%
inhibition at 1 µM [3]: > 80%
inhibition at 1 µM [4]: > 80%
inhibition at 1 µM [6]: > 80%
inhibition at 1 µM [7]: > 80%

CN1CCCCCOc2cc3c(ncnc3cc2OC[C@@H](O)CN2CCS(=O)(=O)CC2)Nc2cc(Br)ccc2C1 [Compound 12]
inhibition at 1 µM [1]: 60 to 80%
inhibition at 1 µM [2]: > 80%
inhibition at 1 µM [3]: > 80%
inhibition at 1 µM [4]: > 80%
inhibition at 1 µM [5]: > 80%
inhibition at 1 µM [6]: > 80%
inhibition at 1 µM [7]: > 80%

CN1CCCCCOc2cc3c(ncnc3cc2OC[C@H](O)CNCCOCCO)Nc2cc(Cl)c(F)cc2C1 [Compound 17]
inhibition at 1 µM [2]: > 80%
inhibition at 1 µM [3]: > 80%
inhibition at 1 µM [4]: > 80%
inhibition at 1 µM [6]: > 80%
inhibition at 1 µM [7]: > 80%
